Experimental data taken from EP1818060A1, “Cosmetic composition comprising Fadogia ancylantha extracts” (ARTSANA S.p.A., priority 2005, dated 2007).
Marks after values point to notes of the source that are not given here.

Experiment: Antioxidant activity, DPPH test
Assay type: biochemical
Settings: second SC50 column; control; in brackets tolerated range 95%
Procedure: The antioxidant activity of the dry extract A, obtained as above illustrated in Example 1, of Fadogia ancylantha was determined using the 2,2 diphenyl-1-picrilhydrazilic stable radical (DPPH°) and α-tocopherol as a control, according to the protocol disclosed by Aquino R. et al. in "Phenolic constituents and antioxidant activity of an extract of Anthurium versicolor leaves", J. of Natural products 64, 1019-1023.
The decrease of absorbance measured according to the above protocol is directly correlated with the free-radical scavenger ability of the antioxidant under test.
The DPPH° percentage remaining at the steady state (%DPPH°RIM) is calculated by applying the following formula %DPPH°RIM = (DPPH)° × T1 /(DPPH°) × To × 100 [formula] where T1 is the time to reach the steady state.
The amount of the antioxidant needed to reduce the radical initial concentration to a half (SC50, expressed as µg of the extract/ml) was calculated from the percentage of DPPH°RIM with respect to the antioxidant concentrations used.
All tests were carried out in triplicate and repeated for three times.

For `Cc1c(C)c2c(c(C)c1O)CC[C@@](C)(CCC[C@H](C)CCC[C@H](C)CCCC(C)C)O2` [α-tocopherol], the “DPPH test SC50” value was 10.1 (8.8-11.4)^c µg/ml of phenols.
